Data taken from US7919101B2 (priority 2008, dated 2011).
Where two headings read alike, the source gives them in different places. Residues, ends and D or L forms follow the SMILES beside them. No end group written: not given here.

How the values were obtained:
[1] = tested on: HIV-1; conditions: cited from earlier work
[2] = tested on: HIV-1 Env-mediated cell-cell fusion; conditions: cited from earlier work
[3] = target: gp41 6-HB formation (Human immunodeficiency virus type 1 group M subtype B, UniProt P04578); conditions: cited from earlier work
Chain of gp41 6-HB formation (P04578 546-581): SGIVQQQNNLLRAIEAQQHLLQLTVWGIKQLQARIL

[4] = tested on: HIV-1-mediated cell-cell fusion (H9/HIV-1IIIB cells and MT-2 cells); assay: HIV-1-mediated cell-cell fusion, dye transfer assay; format: cell-based
Procedure: The inhibitory activities of the compounds on HIV-induced cell-cell fusion were determined using a dye transfer assay (Jiang S et al. Proc SPIE 3926:212-219, 2000). Briefly, H9/HIV-1IIIB cells were pre-labeled with a fluorescent dye, Calcein AM (Molecular Probes, Inc.), and incubated with a testing compound at a graded concentration at 37° C. for 30 min in a 96-well cell culture plate. Then the CD4^+ MT-2 cells were added to the H9/HIV-1IIIB cells at a ratio of 10:1, followed by incubation at 37° C. for 2 hrs. The fused and unfused calcein-labeled HIV-1-infected cells were counted under an inverted fluorescence microscope with an eyepiece micrometer disc.

[5] = cited from earlier work
[6] = in combination T-20:Sifuvirtide (4:1)
[7] = in combination T-20:Sifuvirtide (4:1) vs alone

Compound: short all D-amino acid peptide; SEQ ID NO:25 KGACDYPEWQWLCAA [PIE7]
- EC50, HIV infection / replication (in words) [1]: low micromolar range

Compound: COc1ccc(S(=O)(=O)[O-])cc1N=Nc1c(S(=O)(=O)[O-])cc2cc(Nc3nc(Nc4ccccc4)nc(Nc4cc(C)c(N=Nc5cc(S(=O)(=O)[O-])cc6cc(S(=O)(=O)[O-])cc(O)c56)cc4OC)n3)ccc2c1O.[Na+].[Na+].[Na+].[Na+] [ADS-J1]
- EC50, HIV-1 mediated cell-cell fusion (in words) [2]: low μM range
- EC50, HIV infection / replication (in words) [1]: low μM range
- EC50, gp41 6-HB formation (in words) [3]: low μM range

Compound: NHR-peptide, disulfide-stabilized helical trimer; SEQ ID NO:48 SGIVQQQNNLLRAIEAQQHLLQLTVWGIKQCCGR (not fully specified (bridges); also: disulfide-stabilized helical trimer) [N34ccg]
- EC50 ([2]; read-out: EC50, HIV-induced cell-cell fusion): 95 nM

Compound: short all D-amino acid peptide; SEQ ID NO:24 KGACELLGWEWAWLCAA [D10-p5-2K]
- EC50, HIV infection / replication (in words) [1]: low micromolar range

Compound: CC[C@H](C)[C@H](NC(=O)[C@H](CCC(=O)O)NC(=O)[C@H](CCCNC(=N)N)NC(=O)[C@H](CCC(=O)O)NC(=O)[C@H](Cc1c[nH]c2ccccc12)NC(=O)[C@@H](NC(=O)[C@H](CCC(=O)O)NC(=O)[C@H](Cc1c[nH]c2ccccc12)NC(=O)[C@@H](N)CO)[C@@H](C)O)C(=O)N[C@@H](CCC(=O)O)C(=O)N[C@@H](CC(N)=O)C(=O)N[C@@H](Cc1ccc(O)cc1)C(=O)N[C@H](C(=O)N[C@@H](CCCCN)C(=O)N[C@@H](CCC(N)=O)C(=O)N[C@H](C(=O)N[C@@H](Cc1ccc(O)cc1)C(=O)N[C@@H](CCCCN)C(=O)N[C@H](C(=O)N[C@@H](CC(C)C)C(=O)N[C@@H](CCC(=O)O)C(=O)N[C@@H](CCC(=O)O)C(=O)N[C@@H](CO)C(=O)N[C@@H](CCC(N)=O)C(=O)N[C@@H](CCC(=O)O)C(=O)N[C@@H](CCC(N)=O)C(=O)N[C@@H](CCC(N)=O)C(=O)N[C@@H](CC(=O)O)C(=O)N[C@@H](CCCNC(=N)N)C(=O)N[C@@H](CC(N)=O)C(=O)N[C@@H](CCC(=O)O)C(=O)N[C@@H](CCCCN)C(=O)N[C@@H](CC(=O)O)C(=O)N[C@@H](CC(C)C)C(=O)N[C@@H](CC(C)C)C(=O)N[C@@H](CCC(=O)O)C(=O)O)[C@@H](C)CC)[C@@H](C)CC)[C@@H](C)O [Sifuvirtide] (H-SWETWEREIENYTKQIYKILEESQEQQDRNEKDLLE-OH; N-terminus and C-terminus assumed)
- EC70 Concentration Mix [4, 6]: 0.589 nM
- EC95 Concentration Mix [4, 6]: 0.884 nM
- Potency increase at EC50 [4, 7]: 35.424 fold
- Potency increase at EC70 [4, 7]: 35.075 fold
- Potency increase at EC90 [4, 7]: 34.771 fold
- Potency increase at EC95 [4, 7]: 34.564 fold
- EC50 ([4]; in combination T-20:Sifuvirtide (4:1), read-out: EC50 Concentration Mix): 0.462 nM
- EC90 ([4]; in combination T-20:Sifuvirtide (4:1), read-out: EC90 Concentration Mix): 0.75 nM
- EC70 Concentration Alone ([4]; peptide tested alone): 20.659 nM
- EC95 Concentration Alone ([4]; peptide tested alone): 30.555 nM
- EC50 ([4]; peptide tested alone, read-out: EC50 Concentration Alone): 16.4 nM
- EC90 ([4]; peptide tested alone, read-out: EC90 Concentration Alone): 26.1 nM
- decay half-life ([5]; multiple administration): 26.0 ± 7.9 h
- decay half-life ([5]; single administration): 20.0 ± 8.6 h
